{"source": "patent US11298333B1", "about": "“Methods of reducing the risk of cardiovascular events in a subject” (Amarin Pharmaceuticals Ireland Limited, priority 2018, dated 2022)", "key": {"[1]": {"tested_on": "TG, non-HDL-C, LDL-C, HDL-C, apo B, hsCRP", "assay": "REDUCE-IT: fasting lipid, lipoprotein and inflammatory biomarkers over time", "type": "in vivo, human", "conditions": "Year 2; ITT", "procedure": "Fasting Lipid Profile: The fasting lipid panel included: TG, TC, LDL-C, HDL-C, non-HDL-C, and VLDL-C. At all visits, LDL-C was calculated using the Friedewald equation. At Visit 1 and Visit 1.1 direct LDL-C were used if at the same visit TG >400 mg/dL (4.52 mmol/L). These LDL-C values were used for the evaluation of the LDL-C inclusion criterion (LDL-C qualifying measurements for randomization) and for the assessment of changes in the statin therapy when LDL-C was not at goal. […] In addition, irrespective of the TG levels, at Visit 2 (0 Months of Follow-up, baseline) and at Visit 4 (12 Months of Follow-up), LDL-C were measured by preparative ultracentrifugation. […] Hopkins LDL-C was calculated for each visit. […]\nThe fasting lipid panel was tested at Screening (Visit 1 or Visit 1.1), Randomization visit (Visit 2; Day 0), Visit 3 (Day 120; ˜4 Months) and all other follow-up visits including the last visit. For change from baseline to 1 year preparative ultracentrifugation measurements for LDL-C were analyzed, unless this value was missing. […] In addition, change from baseline to day 120 in LDL-C utilizing Friedewald's and Hopkins methods was analyzed, using the arithmetic mean of LDL-C obtained at Visit 2 (Day 0) and the preceding Visit 1 (or Visit 1.1). […] LDL-C according to Hopkins was calculated at each visit. […]"}, "[2]": {"tested_on": "hypertriglyceridemic patients with cardiovascular disease or at high risk for cardiovascular disease", "conditions": "in vivo", "protocol": "Specification of Variables and Procedures: Safety assessments included adverse events, clinical laboratory measurements (chemistry, hematology), 12-lead ECGs, vital signs (systolic and diastolic blood pressure, heart rate, respiratory rate, and body temperature), weight, waist circumference, and physical examinations as per Study Procedures in Table 1. […] All laboratory test results were evaluated by the investigator as to their clinical significance. Any observations at physical examinations or laboratory values considered by the investigator to be clinically significant were considered an adverse event.\nAn adverse event can therefore be any unfavorable and/or unintended sign (including an abnormal laboratory finding), symptom, or disease temporally associated with the use of an investigational medication product, whether or not related to the investigational medication product. All adverse events, including observed or volunteered problems, complaints, or symptoms, were recorded on the appropriate CRF. Each adverse event was evaluated for duration, intensity, and causal relationship with the study medication or other factors.\nSerious Adverse Events: A serious adverse event (SAE) is defined as an adverse event that meets any of the following criteria: • Results in death; • Is life-threatening—The term “life-threatening” in the definition of “serious” refers to an event in which the patient was at risk of death at the time of the event. […] Important medical events that may not result in death, be life threatening, or require hospitalization were considered an SAE when, based upon appropriate medical judgment, they may have jeopardized the patient and may have required medical or surgical intervention to prevent one of the outcomes listed above.\nAdverse Events of Special Interest: Bleeding-related adverse events, glucose control (fasting blood glucose and HbA1c), and indicators of hepatic disorders (e.g., ALT or AST increases >3×ULN, total bilirubin increases of ≥2×ULN) were summarized separately and compared between treatment groups.\nAnalysis of Safety: All analyses of safety were conducted on the safety population, which was defined as all randomized patients. The safety assessment was based on the frequency of adverse events, physical exams, vital signs and safety laboratory tests. AEs with new onset during the study between the initiation of study drug and 30 days after the last dose of study drug for each patient was considered treatment-emergent (TEAEs). This included any AE with onset prior to initiation of study drug and increased severity after the treatment initiation.\nThis included overall incidence rates (regardless of severity and relationship to study drug), and incidence rates for moderate or severe adverse events. A summary of SAEs and adverse events leading to early discontinuation (for ≥30 days) were presented through data listings. Patients who restarted study drug were included in the summary of AEs leading to discontinuation. Safety laboratory tests and vital signs were summarized by post-treatment change from baseline for each of the parameters using descriptive statistics by treatment group. Those patients with significant laboratory abnormalities were identified in data listings. Additional safety parameters were summarized in data listings."}}}
{"compound": "CC/C=C\\C/C=C\\C/C=C\\C/C=C\\C/C=C\\CCCC(=O)OCC", "note": "[Icosapent Ethyl, eicosapentaenoic acid ethyl ester]", "values": [{"measurement": "Triglycerides median absolute change from baseline", "setting": "[1]", "result": 85, "unit": "mg/dL"}, {"measurement": "TEAE Upper respiratory tract infection", "setting": "[2]; human", "result": "312 (7.6%) n (%)"}, {"measurement": "TEAE Urinary tract infection", "setting": "[2]; human", "result": "253 (6.2%) n (%)"}, {"measurement": "Fatal bleeding events", "setting": "[2]", "result": "no fatal bleeding events"}]}
